Reference: article PMC6687188, “Novel lactate dehydrogenase inhibitors with in vivo efficacy against Cryptosporidium parvum” (PLoS Pathogens, 2019)
Where two headings read alike, the source gives them in different places.

Columns and labels:
[1] = biological target: recombinant CpLDH protein (Cryptosporidium parvum, UniProt Q9GT92, F198L/K295E/R251K)
Cryptosporidium parvum [2] = experiment: Histopathology of distal small intestine of infected mice (denuded villi); type: in vivo; conditions: 9 days post-infection
Protocol: Gamma interferon knockout mice (B6.129S7-Ifng), 8 weeks of age, were purchased from Charles River, USA. The care and use of the mice was done following the guidelines of protocol number 17024 approved by the University of Illinois at Urbana-Champaign, USA. The animals were allowed to acclimatize for 1 week before experiments commenced. Stock solutions of recombinant CpLDH inhibitors reconstituted in DMSO were diluted in sterile distilled water to reduce the final amount of DMSO in the solution to less than 1% (v/v) before administering them to mice. Prior to testing the anti-Cryptosporidium effect of the inhibitors in mice, the tolerability of each inhibitor was tested by oral gavage using varying dosages (100–2000 mg/kg body weight) of each inhibitor in groups of mice (three mice for each dose) daily for 7 days. Mice were observed daily for signs of toxicity including changes from normal physical activity, respiration, body temperature, feeding, posture, fur condition or occurrence of death. […] Mice were allocated to groups as follows: “Infected plus inhibitor treatment”; “Infected minus inhibitor treatment”; “Uninfected minus inhibitor treatment” and “Infected plus paromomycin treatment”. Each group contained at least three mice. Each mouse in the infection groups received 5,000 C. parvum oocysts (resuspended in 50 μl of PBS) by oral gavage. Mice were housed individually in cages lined with sterile gauze as bedding. One day post-infection (PI), daily oral gavage administration of recombinant CpLDH inhibitor or paromomycin commenced and continued for a total of 7 days. Untreated mice received an equivalent volume of sterile distilled water (containing DMSO equivalent to the amount administered in the inhibitor-treated group) by oral gavage. […] An equivalent volume of PBS containing a cocktail of penicillin (100 units/ml), streptomycin (100 μg/ml), chloramphenicol (34 μg/ml) and amphotericin (0.25 μg/ml) was added to the fecal samples and stored at 4°C until use for quantification of C. parvum genomic DNA load. […]

[3] = Tolerability in mice, daily oral gavage for 7 days; type: in vivo; conditions: daily oral gavage over 7 days, no toxicity signs
Protocol: (§1) Gamma interferon knockout mice (B6.129S7-Ifng), 8 weeks of age, were purchased from Charles River, USA. The care and use of the mice was done following the guidelines of protocol number 17024 approved by the University of Illinois at Urbana-Champaign, USA. The animals were allowed to acclimatize for 1 week before experiments commenced. Stock solutions of recombinant CpLDH inhibitors reconstituted in DMSO were diluted in sterile distilled water to reduce the final amount of DMSO in the solution to less than 1% (v/v) before administering them to mice. Prior to testing the anti-Cryptosporidium effect of the inhibitors in mice, the tolerability of each inhibitor was tested by oral gavage using varying dosages (100–2000 mg/kg body weight) of each inhibitor in groups of mice (three mice for each dose) daily for 7 days. Mice were observed daily for signs of toxicity including changes from normal physical activity, respiration, body temperature, feeding, posture, fur condition or occurrence of death. […] An equivalent volume of PBS containing a cocktail of penicillin (100 units/ml), streptomycin (100 μg/ml), chloramphenicol (34 μg/ml) and amphotericin (0.25 μg/ml) was added to the fecal samples and stored at 4°C until use for quantification of C. parvum genomic DNA load. […]

Cryptosporidium parvum [4] = experiment: In vitro anti-Cryptosporidium assay in HCT-8 cells (immunofluorescence); type: cell-based
Protocol: HCT-8 cells were cultured in supplemented RPMI-1640 medium in 96-well plates. When the cells were confluent, old medium was replaced with fresh medium. To one set of wells, varying concentrations of recombinant CpLDH inhibitors (reconstituted in DMSO and diluted in RPMI medium) were added, while another set was left without inhibitors. Paromomycin was used as a positive control drug reconstituted in distilled sterile water. Then, 4 x 10^4 freshly excysted sporozoites were added to each well and incubated at 37°C with 5% CO2. After 2 h incubation, varying concentrations of CpLDH inhibitors were added to the set of infected cells that were not treated initially. Control infected cells without inhibitors, but with added DMSO volumes equivalent to those used in the wells with inhibitors, were included. The cells were maintained in culture for a total of either 48 h or 72 h and processed for immunofluorescence assay as previously described. Briefly, medium was decanted and the cells fixed with methanol-acetic acid (9:1) for 2 minute at room temperature. The cells were rehydrated and permeabilized by two successive washes with buffer (0.1% Triton X-100, 0.35 M NaCl, 0.13 M Tris-base, pH 7.6) and blocked with 5% normal goat serum, followed by staining with antibody to C. parvum (SporoGlo; Waterborn, Inc.) overnight at 4°C. The stained cells were washed twice with PBS, followed by water, and then imaged with an inverted fluorescence microscope. Fluorescence quantification was done using ImageJ version 1.37v software (NIH).

HCT-8 cells [5] = experiment: Compound cytotoxicity assay (WST-1 cell proliferation reagent); conditions: read-out: CYTOTOXICITY IC50; HCT-8 cells, 24 h
Protocol: A colorimetric assay using the cell proliferation reagent WST-1 (Roche, USA) for the quantification of cell viability was performed. […] When the cells were confluent, the old medium was replaced with fresh medium with or without varying concentrations of chemical compound. After 24 h of culture, 10 μl of the cell proliferation reagent WST-1, (for quantification of cell viability) was added to each well, mixed and the plates incubated for 1 h at 37 C with 5% CO2 in the dark. […] Three independent assays were performed and the dose–response curves of the means of triplicate assays were generated using GraphPad PRISM software to derive the half maximal inhibitory concentration (IC50) of compounds in HCT-8 cells.

Cryptosporidium parvum [6] = experiment: In vivo anti-Cryptosporidium efficacy: real-time PCR of C. parvum DNA in feces of infected Gamma interferon knockout mice
Protocol: as §1, with “mice.” for “mice. Prior to testing the anti-Cryptosporidium effect of the inhibitors in mice, the tolerability of each inhibitor was tested by oral gavage using varying dosages (100–2000 mg/kg body weight) of each inhibitor in groups of mice (three mice for each dose) daily for 7 days. Mice were observed daily for signs of toxicity including changes from normal physical activity, respiration, body temperature, feeding, posture, fur condition or occurrence of death.”
Genomic DNA was extracted from individual fecal samples collected from mice at different days as described above. […] Quantification of the amount of C. parvum 18s rRNA gene (GenBank accession number AF164102) was performed essentially as described previously. […] The PCR product was fractionated on agarose gel, extracted using the QIAquick Gel extraction kit (Qiagen, USA), and the concentration measured by Nanodrop Spectrophotometer (Fisher, USA). Ten-fold serial dilutions of the extracted DNA fragment were made and used as quantification standards for real-time PCR. […]

HCT-8 cells [7] = test system: HCT-8 cells; design: method as in PMID 10882689, PMID 18591280; conditions: concentrations above 1000 μM; cited from earlier work
Cryptosporidium parvum [8] = test system: Cryptosporidium parvum; design: method as in PMID 18591280; conditions: read-out: IC50 for inhibition of C. parvum growth in HCT-8 cells; cited from earlier work

| Structure (SMILES) | MEAN CpLDH INHIBITION (%) [1] [%] | IC50 ([1]; read-out: IC50, inhibition of recombinant CpLDH activity) [µM] | reduction of percentage of denuded intestinal villi compared to infected untreated mice (Cryptosporidium parvum [2]) [fold] | intestinal histopathology (in words) (Cryptosporidium parvum [2]; distal small intestine) | highest tolerable dose in mice [3] [mg/kg] | C. parvum proliferation in vitro, initial screen (in words) (Cryptosporidium parvum [4]; 48 h post-infection, concentration at least 50% lower than cytotoxicity IC50) | IC50 (Cryptosporidium parvum [4]; compound added at the time of infection, HCT-8 cells, read-out: IC50, inhibition of C. parvum growth at 72 h p.i.) [µM] | IC50 (Cryptosporidium parvum [4]; read-out: IC50, inhibition of C. parvum growth at 48 h p.i. (2 h), compound added 2 h post-infection, HCT-8 cells) [µM] | IC50 (Cryptosporidium parvum [4]; read-out: IC50, inhibition of C. parvum growth at 48 h p.i., compound added at the time of infection, HCT-8 cells) [µM] | IC50 (Cryptosporidium parvum [4]; read-out: IC50, inhibition of C. parvum growth at 72 h p.i. (2 h), compound added 2 h post-infection, HCT-8 cells) [µM] | IC50 (HCT-8 cells [5]) [µM] | lower C. parvum DNA load in feces compared to infected untreated (Cryptosporidium parvum [6]; 250, 500 and 1000 mg/kg, day 3 until day 8) | cytotoxicity in HCT-8 cells (HCT-8 cells [7]) | IC50 (Cryptosporidium parvum [8]) [µM] | IC50 (Cryptosporidium parvum [4]; Cryptosporidium parvum, HCT-8, 48 h post-infection, positive control, time of addition not specified, read-out: IC50, inhibition of C. parvum growth) [µM] | IC50 (Cryptosporidium parvum [4]; Cryptosporidium parvum, HCT-8, 72 h post-infection, positive control, time of addition not specified, read-out: IC50, inhibition of C. parvum growth) [µM] | reduction of shedding of C. parvum in mice feces compared to untreated infected mice (Cryptosporidium parvum [6]; day 7 post-infection, NSC158011 400 mg/kg, paromomycin 100 mg/kg) |
| --- | --- | --- | --- | --- | --- | --- | --- | --- | --- | --- | --- | --- | --- | --- | --- | --- | --- |
| O=C1c2ccccc2C(=O)c2c(O)c(O)cc(O)c21 [NSC10447] | 39.07 | 46.3 | ≥ 7 | prevented villous atrophy and maintained the integrity of the intestinal mucosa | 1000 | significantly (P < 0.05) inhibit C. parvum proliferation | 83.6 | 79.5 | 72.7 | 95.2 | 290 | at least 50% |  |  |  |  |  |
| NC[C@@H]1O[C@H](O[C@H]2[C@@H](O)[C@H](O[C@@H]3[C@@H](O)[C@H](N)C[C@H](N)[C@H]3O[C@H]3O[C@H](CO)[C@@H](O)[C@H](O)[C@H]3N)O[C@@H]2CO)[C@H](N)[C@@H](O)[C@@H]1O [paromomycin, reference compound] |  |  | ≥ 7 |  |  |  |  |  |  |  |  |  | negligible | 711 | 450 | 400 | about 3000 fold |
